# Experimental data taken from patent US20070207993A1, “Molybdenum carbonyl complexes for treating rheumatoid arthritis and other inflammatory diseases” (Alfama - Investigacao e Desenvolvimetno De Productos …, priority 2005, published 2007).
# Columns and labels:
# [1] = Solubility in water and RPMI; type: physicochemical
# [2] = tested on: Sprague Dawley rats; test: Toxicity in vivo, 20-day daily dosing; design: species or system rat; conditions: 80 mg/kg daily for 20 days, in olive oil
# Description: Compound I.1 was dissolved in olive oil and administered to Sprague Dawley rats at a daily dose of 80 mg/kg for 20 days. At the end of the treatment the rats were anesthetized, blood was collected and organ samples were fixed in formalin for histological analysis.
# [3] = CO release in the presence of reactive oxygen species (TBHP, H2O2, KO2); type: physicochemical; conditions: 25° C., dark; for Equivalents of CO2 released, H2O2 / Equivalents of CO released, H2O2: H2O2 100:1, water; for Equivalents of CO2 released, KO2 / Equivalents of CO released, KO2: KO2 100:1, THF; for Equivalents of CO2 released, TBHP / Equivalents of CO released, TBHP: TBHP 100:1, water
# Description: The studies were done using the same method and apparatus described in Example 7 with the following modifications: RPMI/FBS was replaced by double distilled water in the experiments with H2O2 and TBHP and by tetrahydrofuran (THF) for the experiments with KO2; the temperature was kept at 25° C. The concentration of Compound I.1 was approximately 1 mM and the ration of concentrations of H2O2, TBHP and KO2 relative to Compound I.1 was 100:1. The amount of CO2 generated was also measured in the same experiment to ascertain the concurrent oxidation of coordinated CO. TBHP was added from a 70% aqueous solution and H2O2 from a 30% aqueous solution.
# [4] = Spontaneous CO release from suspensions (gas chromatography, TCD); type: physicochemical; conditions: dark; for Equivalents of CO released, H2O pH = 2.13: suspension in H2O pH 2.13, 37° C.; for Equivalents of CO released, H2O pH = 8.3: suspension in H2O pH 8.3, 37° C.; for Equivalents of CO released, RPMI: suspension in RPMI with 10% FBS; for Equivalents of CO released, RPMI / CO equivalents (average ± standard deviation) / Equivalents of CO released, Olive oil: 37° C.; for CO equivalents (average ± standard deviation): suspension in RPMI, eight independent assays; for Equivalents of CO released, Olive oil: suspension in olive oil
# Description: CO detection was carried out by Gas Chromatography using a thermal conductivity detector (TCD) for the quantification of CO and CO2. The experiments were done under an initial atmosphere of reconstituted air, free of CO and CO2. […] […] Samples were withdrawn with gas-tight Hamilton syringes after homogenization of the head-space at given time intervals, preferably 2 hours, 4 hours and 6 hours. […] The volumes of CO released are usually in the range between 0.5-3 mL.
# As a possible result of the use of suspensions, the number of CO equivalents released in RPMI varied slightly. As an example of the possible variations, the average of eight independent assays done with suspensions of Compound I.1 is given in Table 2.
# [5] = tested on: Balb/c mice; test: Mortality in mice after injection of a lethal dose of LPS; type: in vivo; conditions: LPS 10 mg/kg i.p., four i.p. injections of 20 mg/kg at -60, -30 min, +4 h, +9 h
# Description: Seventeen eight week old Balb/c mice received one intraperitoneal injection of LPS at a dose of 10 mg/kg at time zero. One group of eight mice received four intraperitoneal injections of Compound I.1, each at a dose of 20 mg/kg, at 60 and 30 minutes before LPS and at 4 hours and 9 hours after LPS. A second group of 9 mice received four intraperitoneal injections of vehicle (carboxymethylcellulose 0.5%, Tween80 0.5%) at 60 and 30 minutes before LPS and at 4 hrs and 9 hrs after LPS. Survival of the mice was monitored for 168 hours.
# [6] = tested on: Wistar rats; test: Adjuvant arthritis in rats; type: in vivo, rat
# Description: Adjuvant arthritis was induced in 11 week old, outbred Wistar rats (376-400 g) by a single intradermal injection into the subplanatar area of the right hind paw of 100 microliter of a 10 mg/ml suspension of mycobacterium butyricum in incomplete Freund's Adjuvant. The disease was induced in 3 groups of rats each consisting of 7 animals. […] Groups 2 and 3 received daily applications of methylene chloride (positive control) (500 mg/kg), or Compound I.1 (80 mg/kg), respectively. Both compounds were administered in olive oil by oral gavage. Treatment was initiated at day 10 after disease induction when signs of arthritis began to appear in the injected footpad as well as in the contralateral footpad. […] All animals were evaluated daily by determination of body weight, foot pad volume (performed by a water displacement method using a plethysmometer, Ugo Basile, Comerio, Italy), ankle circumference (using a flexible measuring tape) and arthritic index that is based on levels of erythema and oedema of the entire paws and digits, number of joints involved, spondilosis, lesions on tail, movement capacity and infections (0=normal, 1=swelling and/or redness of injected paw; 4=severe arthritis of the entire injected paw and digits; +2=2 joints are involved; +3=>2 joints are involved; +1=infection of paws; +1=tail lesions; +1=movement incapacity; +1=spondilosis). […]
smiles,measurement,setting,value
O=[C][Mo]([Br])([C]=O)([C]=O)([C]=O)[C]=O [Compound I.1],solubility in water and RPMI,[1],low solubility
same,"histologic analysis of liver, kidney, heart, and spleen",[2],did not reveal any gross alterations
same,serum creatinine,[2],in the normal range
same,serum glutamic oxalacetic transaminase (sGOT),[2],in the normal range
same,serum glutamic pyruvic transaminase (sGPT),[2],in the normal range
same,serum urea,[2],in the normal range
same,signs of liver or kidney toxicity,[2],No signs of liver or kidney toxicity
same,"Equivalents of CO2 released, H2O2",[3]; 1 h,0.41 equivalents
same,"Equivalents of CO released, H2O2",[3]; 1 h,1.08 equivalents
same,"Equivalents of CO2 released, H2O2",[3]; 3 h,0.80 equivalents
same,"Equivalents of CO released, H2O2",[3]; 3 h,1.49 equivalents
same,"Equivalents of CO2 released, H2O2",[3]; 5 h,0.90 equivalents
same,"Equivalents of CO released, H2O2",[3]; 5 h,1.46 equivalents
same,"Equivalents of CO2 released, H2O2",[3]; 24 h,0.89 equivalents
same,"Equivalents of CO released, H2O2",[3]; 24 h,1.43 equivalents
same,"Equivalents of CO2 released, KO2",[3]; 1 h,0.00 equivalents
same,"Equivalents of CO released, KO2",[3]; 1 h,1.94 equivalents
same,"Equivalents of CO2 released, KO2",[3]; 3 h,0.00 equivalents
same,"Equivalents of CO released, KO2",[3]; 3 h,3.22 equivalents
same,"Equivalents of CO2 released, KO2",[3]; 5 h,0.00 equivalents
same,"Equivalents of CO released, KO2",[3]; 5 h,2.54 equivalents
same,"Equivalents of CO2 released, KO2",[3]; 24 h,0.00 equivalents
same,"Equivalents of CO released, KO2",[3]; 24 h,2.29 equivalents
same,"Equivalents of CO2 released, TBHP",[3]; 1 h,0.51 equivalents
same,"Equivalents of CO released, TBHP",[3]; 1 h,2.51 equivalents
same,"Equivalents of CO2 released, TBHP",[3]; 3 h,0.95 equivalents
same,"Equivalents of CO released, TBHP",[3]; 3 h,3.77 equivalents
same,"Equivalents of CO2 released, TBHP",[3]; 5 h,1.07 equivalents
same,"Equivalents of CO released, TBHP",[3]; 5 h,3.94 equivalents
same,"Equivalents of CO2 released, TBHP",[3]; 24 h,1.13 equivalents
same,"Equivalents of CO released, TBHP",[3]; 24 h,3.93 equivalents
same,"Equivalents of CO released, H2O pH = 2.13",[4]; 2 hours,0.98 equivalents of CO
same,"Equivalents of CO released, H2O pH = 2.13",[4]; 4 hours,1.00 equivalents of CO
same,"Equivalents of CO released, H2O pH = 2.13",[4]; 6 hours,0.93 equivalents of CO
same,"Equivalents of CO released, H2O pH = 8.3",[4]; 2 hours,1.24 equivalents of CO
same,"Equivalents of CO released, H2O pH = 8.3",[4]; 4 hours,1.03 equivalents of CO
same,"Equivalents of CO released, H2O pH = 8.3",[4]; 6 hours,0.98 equivalents of CO
same,"Equivalents of CO released, RPMI",[4]; 2 hours,1.82 equivalents of CO
same,"Equivalents of CO released, RPMI",[4]; 4 hours,2.16 equivalents of CO
same,"Equivalents of CO released, RPMI",[4]; 6 hours,2.27 equivalents of CO
same,CO equivalents (average ± standard deviation),[4]; 0.5 hours,0.64 ± 0.11 CO equivalents
same,CO equivalents (average ± standard deviation),[4]; 1 hour,1.56 ± 0.13 CO equivalents
same,CO equivalents (average ± standard deviation),[4]; 2 hours,1.82 ± 0.01 CO equivalents
same,CO equivalents (average ± standard deviation),[4]; 3 hours,2.42 ± 0.38 CO equivalents
same,CO equivalents (average ± standard deviation),[4]; 4 hours,2.16 ± 0.13 CO equivalents
same,CO equivalents (average ± standard deviation),[4]; 5 hours,2.43 ± 0.39 CO equivalents
same,CO equivalents (average ± standard deviation),[4]; 6 hours,2.27 ± 0.21 CO equivalents
same,CO equivalents (average ± standard deviation),[4]; 7 hours,2.51 ± 0.00 CO equivalents
same,CO equivalents (average ± standard deviation),[4]; 24 hours,2.40 ± 0.00 CO equivalents
same,"Equivalents of CO released, Olive oil",[4]; 2 hours,0.08 equivalents of CO
same,"Equivalents of CO released, Olive oil",[4]; 4 hours,0.25 equivalents of CO
same,"Equivalents of CO released, Olive oil",[4]; 6 hours,0.53 equivalents of CO
same,mice alive at 168 hours following LPS injection,[5],three of the eight
same,"paw volume, paw circumference and arthritis index (all measured parameters) versus positive control","[6]; Wistar rats, 80 mg/kg daily oral gavage in olive oil, day 10 to 29, methylene chloride at 500 mg/kg",superior to methylene chloride
same,effect in control rats with severe arthritis treated from day 20 on,"[6]; three rats of the control group, treated for 10 days",signs of improvements
